The source of these data is patent publication US9006394B2, “Peptide-presenting surfaces for long-term culture of pluripotent cells” (Wisconsin Alumni Research Foundation, priority 2008, dated 2015).

For data set [1] the following is noted: Kyte & Doolittle; cited from earlier work.
Data set [2] relates to undifferentiated hESCs (Oct-4 positive) and differentiated cells derived from embryoid bodies (Oct-4 negative). Nature of the data set: Effect of ROCK inhibitor on cellular adhesion. Type of data set: cell-based, human. How it is done:
Effect of ROCK inhibitor on cellular adhesion: A mixture of undifferentiated hESCs (Oct-4 positive) and differentiated cells derived from embryoid bodies (Oct-4 negative) was seeded onto self-assembled monolayer surfaces presenting the GBP […] (SEQ ID NO: 1) and the integrin binding peptide KGRGDS (SEQ ID NO: 5). For some experiments, cells were seeded onto polyacrylamide gels or glass coverslips presenting the […] (SEQ ID NO: 47) peptide. The cells were grown for 24 hours in mTeSR medium containing 5 μM ROCK inhibitor Y-27632 and then switched to mTeSR medium without ROCK inhibitor for an additional 24 hours. The cells were fixed and stained for Oct-4 and counterstained with phalloidin and DAPI. In some instances, cells were added to the surfaces without ROCK inhibitor.

Data set [3] relates to hESCs. Nature of the data set: Culture on other chemically defined surfaces (streptavidin plates, polyacrylamide gels, glass coverslips). It counts as cell-based, human. The text has this:
Moreover, some hESCs were passaged to streptavidin-coated plates treated with biotinylated vitronectin GBP (SEQ ID NO:1) or polyacrylamide gels cross-linked to vitronectin GBP (SEQ ID NO:1).

The next data set deals with pluripotent stem cells. Nature of the data set: Number of cell divisions by fluorescent cell staining. Type of data set: cell-based, human.
The subject of data set [4] is hESCs. Nature of the data set: Flow cytometry of pluripotent cell-specific markers after three passages on SAMs. It counts as cell-based, human. The note with it: for pluripotent cell-specific marker expression (Oct-4, SSEA-3, SSEA-4) after 3 passages: 3 passages on SAMs. How it is done:
The density of the peptides on the surface varied from 0.5% to 25% (see, FIG. 1).
Regardless of the nature of the chemically defined surface or peptide(s) attached thereto, about 5×10^4 cells/ml were manually passaged to a fresh chemically defined surface every 5-7 days (i.e., at confluency) after treatment with an Enzyme-Free Cell Dissociation Buffer (Sigma; St. Louis, Mo.; a phosphate-buffered saline (PBS)+ethylenediamine tetraacetic acid (EDTA) 0.02% wt/vol) for 10-15 minutes. After three passages (about 21 days), the cells were evaluated for pluripotent cell-specific markers by flow cytometry.
hESCs were dissociated with 0.05% trypsin-EDTA with 2% chicken serum (Gibco). Cell surface marker staining was performed in PBS containing 2% BSA (wt/vol) at 4° C. for 30 minutes with directly conjugated antibodies against alkaline phosphatase (R&D Systems), Tra 1-60 (BD Biosciences), Tra 1-81 (BD Biosciences), SSEA-4 (BD Biosciences), SSEA-3 (BD Biosciences), SSEA-1 (R&D Systems) followed by a 30 minute fixation with 2% formaldehyde/PBS at room temperature.
For intracellular marker staining, hESCs were fixed with 2% formaldehyde/PBS at room temperature for 30 minutes. For Oct-4 staining, cells were permeabilized with saponin permeabilization buffer (SPB; 0.1% saponin, 0.1% BSA wt/vol in PBS) for 30 minutes at room temperature followed by incubation with an Oct-4 PE-conjugated antibody overnight. Cells were then washed 2 times with SPB before analysis.
Flow cytometry data was obtained using a FACSCalibur™ (BD Biosciences) and analyzed using FlowJo Software (Tree Star, Inc.; Ashland, Oreg.). The percentage of positive cells was established by comparing experimental cells to partially differentiated hESCs. Gating for positive and negative populations was established by analyzing the bimodal peaks of partially differentiated hESCs.
On the technique in general: Flow cytometry measures light scatter and fluorescence of single cells or particles in a stream.

The test system of data set [5] is hES cells (H9 and H13) and vector-free iPS cells (DF19-9). Nature of the data set: Cell growth over two passages (Cell Counting Kit-8). It counts as cell-based, human. How it is done:
hESCs (H9) were cultured on Matrigel, vitronectin, polylysine, […] (SEQ ID NO: 1), or KGRGDS (SEQ ID NO: 5) over two passages in mTeSR media supplemented with 5 μm ROCK inhibitor. Cell counts were calculated at each time point using Cell Counting Kit-8 (Dojindo Molecular Technologies, Inc., Rockville, Md.).
Background: Tetrazolium assays rely on reduction of a dye to a coloured formazan, in cell work by metabolically active cells.

The next data set has as its system human ESCs (H9). Nature of the data set: Cell adhesion (CellTiter-Glo) with soluble heparin or chondroitinase ABC. It counts as cell-based. The note with it: 1 hour; for hESC binding in the presence of soluble heparin: soluble heparin 0.5 mg/mL. As for the experimental part: To determine the effect of a soluble GAG on hESC binding to GBPs, hESCs were plated onto Matrigel-coated surfaces, vitronectin-coated surfaces, or surfaces presenting the heparin-binding peptide […] (SEQ ID NO: 1) in the presence or absence of soluble heparin (0.5 mg/mL). After 1 hour, the surfaces were washed and the cells lysed. The cell lysates were used to determine approximate cell numbers using Cell Titer Glo (Promega). The ratio of the mean luminescence of the cell lysates of cells plated in the presence of heparin versus those without heparin was expressed as percent cell binding for each surface.
To determine if glycosaminoglycans (GAGs) are required for GBP binding, human ESCs (H9) cultured on Matrigel were dissociated using an enzyme-free, Hanks'-based cell dissociation buffer (Sigma) for 10-15 minutes. Cells were resuspended in DMEM/F12 (Gibco), or DMEM/F12 supplemented with 2 units/mL chondroitinase ABC (Sigma), or 500 ug/mL heparin (Sigma). Cells treated with the GAG-degrading enzymes were incubated for 1 hour in suspension at 37° C. Cell suspensions were seeded onto Matrigel-coated surfaces, recombinant vitronectin-coated surfaces (10 μg/mL, R&D Systems), or SAMs presenting the peptide […] (SEQ ID NO: 1) at a 5% surface density. After 1 hour, surfaces were washed 3 times with PBS and the cells were lysed with M-PER buffer (Thermo Fisher Scientific, Inc., Rockford, Ill.). The cell lysate was mixed with CellTiter-Glo (Promega) to determine the number of viable cells in culture based on the presence of ATP. The luminescence was measured on 20/20^n luminometer (Turner Biosystems, Inc., Sunnyvale Calif.). • Cell Growth: […]
(ATP-based viability assays read luminescence as a measure of living cells.)

The subject of data set [6] is hESCs. Nature of the data set: Initial cell survival on SAMs with heregulin supplement. Type of data set: cell-based, human. The note with it: 10 ng/ml in mTeSR1. How it is done:
hESCs were passaged to SAMs of peptide-AT conjugates on gold in mTeSR™1 optionally supplemented with 10 ng/ml heregulin-β1 (Peprotech; Rocky Hill, N.J.) and 5 μM Y-27632 (Calbiochem; San Diego, Calif.). […] Some surfaces presented peptide-AT conjugates of only vitronectin GBP (SEQ ID NO:1), fibronectin GBP (SEQ ID NO:2) or bone sialoprotein GBP (SEQ ID NO:3) Alternatively, some surfaces presented peptide-AT conjugates of only the integrin-binding peptide (SEQ ID NO:5), another bioactive peptide derived from fibronectin (SEQ ID NO:6), the FGF receptor binding peptide (SEQ ID NO:4), the laminin-derived bioactive peptide (SEQ ID NO:7), […] (SEQ ID NO: 8) or […] (SEQ ID NO: 9). Furthermore, some surfaces presented separate peptide-AT conjugates of the integrin-binding peptide (SEQ ID NO:5) and FGF receptor binding peptide (SEQ ID NO:4); the integrin-binding peptide (SEQ ID NO:5) and vitronectin GBP (SEQ ID NO:1); the integrin-binding peptide (SEQ ID NO:5) and bioactive peptide derived from fibronectin (SEQ ID NO:6); and the vitronectin GBP (SEQ ID NO:1) and […] (SEQ ID NO: 9). The density of the peptides on the surface varied from 0.5% to 25% (see, FIG. 1).

Where [7] appears, read: 24 hours with 5 μM, then 24 hours without.

Ends that are not written are not given here.

As for `C[C@H](N)C(=O)O` [A, alanine], in data set [1], the Hydropathy index is 1.8. For `N[C@@H](CS)C(=O)O` [C], the Hydropathy index in data set [1] is 2.5. As to `N[C@@H](CC(=O)O)C(=O)O` [D], the Hydropathy index in data set [1] is reported as −3.5. Turning to `N[C@@H](CCC(=O)O)C(=O)O` [E], the Hydropathy index in data set [1] is reported as −3.5.

For `N[C@@H](Cc1ccccc1)C(=O)O` [F, phenalalanine], in data set [1], the Hydropathy index is reported as 2.8. Turning to `N[C@@H](Cc1c[nH]cn1)C(=O)O` [H, histidine], the Hydropathy index in data set [1] was −3.2. Take `CC[C@H](C)[C@H](N)C(=O)O` [I, isoleucine]: in data set [1], the Hydropathy index is 4.5.

Turning to `NCCCC[C@H](N)C(=O)O` [K, lysine], the Hydropathy index in data set [1] is reported as −3.9.

Regarding `CSCC[C@H](N)C(=O)O` [M, methionine], in data set [1], the Hydropathy index is reported as 1.9. As for `NC(=O)C[C@H](N)C(=O)O` [N], in data set [1], the Hydropathy index is listed as −3.5. In the case of `N=C(N)NCCC[C@H](N)C(=O)O` [R, arginine], the Hydropathy index in data set [1] is listed as −4.5. Regarding `C[C@@H](N)[C@H]1CC[C@H](C(=O)Nc2ccncc2)CC1.Cl.Cl` [ROCK inhibitor, (+)-(R)-trans-4-(1-aminoethyl)-N-(4-pyridyl)cyclohexanecarboxamide dihydrochloride], in data set [2] (setting [7]), the “attachment of differentiated cells after removal of ROCK inhibitor” value was “remained attached and viable”; the “attachment of undifferentiated cells after removal of the ROCK inhibitor” value is “significant detachment”. Moreover, the “Oct-4 positive undifferentiated cells among adherent cells when seeded without the ROCK inhibitor” value in data set [2] (cells added to the surfaces without ROCK inhibitor) is “few of these cells were Oct-4 positive”.

Regarding `N[C@@H](CO)C(=O)O` [S], in data set [1], the Hydropathy index is −0.8.

In the case of `C[C@@H](O)[C@H](N)C(=O)O` [T], in data set [1], the Hydropathy index is listed as −0.7. As to `CC(C)[C@H](N)C(=O)O` [V, valine], the Hydropathy index in data set [1] is recorded as 4.2. As to `N[C@@H](Cc1c[nH]c2ccccc12)C(=O)O` [W], the Hydropathy index in data set [1] was −0.9.

For the compound `N[C@@H](Cc1ccc(O)cc1)C(=O)O` [Y], the Hydropathy index in data set [1] is listed as −1.3. For “CGKKQRFRHRNRKG (not fully specified (C-terminus); also: conjugated to polyacrylamide or glass; listed as Homo sapiens) [peptide conjugated to polyacrylamide gels or glass coverslips]”, the “cell adhesion and growth on non-SAM substrate” value in the data set on hESCs [3] (compared with SAMs) is “supported cell adhesion and growth comparable to SAMs”. As for “KGRGDS (not fully specified (C-terminus); listed as Homo sapiens)”, in the data set with pluripotent stem cells, the “number of cell divisions” value is “fewer cell divisions”. Moreover, in the data set with hESCs [4] (3 passages), the support of self-renewal result is reported as “insufficient to support self-renewal”. Further, the “pluripotent cell-specific marker expression (Oct-4, SSEA-3, SSEA-4) after 3 passages” value with hESCs [4] is recorded as “significantly lower levels of pluripotent cell-specific markers”; with hESCs [4] (listed as RGD-presenting surfaces), “fewer cells in the population displayed markers of pluripotency”. Besides, the “cell growth rate on surface” value in the data set with hESCs [4] (compared with GAG-binding peptide surfaces) is on record as “much more slowly”. Moreover, the “plating efficiency after 24 hours” value in data set [5] is “lowest plating efficiency”.

Turning to “biotinylated SEQ ID NO:1: streptavidin-coated plates treated with biotinylated vitronectin GBP (SEQ ID NO:1) (GKKQRFRHRNRKG; not fully specified (C-terminus); also: biotinylated, site not given here; listed as Homo sapiens)”, in the data set on hESCs [3] (compared with SAMs), the “cell adhesion and growth on non-SAM substrate” value is “supported cell adhesion and growth, although not to the same extent”. Further, the “cell death when ROCK inhibitor is omitted” value with hESCs [3] (streptavidin-coated plates) is on record as “without observable increase in cell death”. Further, the colony spreading result with hESCs [3] (streptavidin-coated plates, compared with SAMs) is “lower than on SAMs”. In the case of heparin [reference compound], the “hESC binding in the presence of soluble heparin” value in the data set on human ESCs (H9) was “inhibited adhesion”.

As for heregulin, in the data set on hESCs [6], the initial cell survival result is reported as “modest improvement”. “vitronectin: recombinant vitronectin-coated surfaces (10 μg/mL, R&D Systems)”: the “number of cell divisions” value in the data set with pluripotent stem cells was “fewer cell divisions”. The “plating efficiency after 24 hours” value in data set [5] is on record as “equivalent”. Moreover, the “cell numbers after each passage” value in data set [5] (two passages, mTeSR with ROCK inhibitor) is on record as “Increased cell numbers”. Also, in the data set with human ESCs (H9) (2 units/mL chondroitinase ABC, 5% surface density), the “adhesion of cells treated with chondroitinase ABC” value is given as “maintained their ability to adhere”. In the data set with human ESCs (H9), the “hESC binding in the presence of soluble heparin” value is “not”.
